Our source for the IC90 and IC50 values is patent publication US7396944B2, “Thiophene derivatives, their manufacture and use as pharmaceutical agents” (Hoffmann-La Roche Inc., priority 2004, dated 2008).

A word on the IC90: it is the concentration at which the effect reaches the 90% level. For orientation: IC50 means the midpoint of a concentration-inhibition curve.

The subject of the first assay is HT-29 cells (human colon carcinoma cell line). The assay is described as follows: MTT assay on HT-29 human colon carcinoma cell line. In kind it is cell-based. The following applies: Homo sapiens, 120 h, MTT assay after 5 days, read-out: IC90 HT29. As to the method: To show the activity of the compounds according to this invention, their effects on a human colon carcinoma cell line was evaluated using a standard MTT-assay. MTT (3-(4,5-dimethylthiazol-2-yl)-2,5-diphenyl tetrazolium bromide) is widely used for the quantitative determination of cytotoxic effects or in vitro chemosensitivity of tumor cells. The assay is based on the cleavage of the yellow tetrazolium salt (MTT) to purple formazan crystals by metabolic active cells. For details, see Rubinstein, L. V., et al., J. Natl. Cancer Inst. 82 (1990) 1113-1118.
We proceeded as follows: HT-29 cells (human colon carcinoma cell line, ATCC-No. HTB-38) were cultivated in RPMI 1640 medium with GlutaMAX™ I (Invitrogen, Cat-No. 61870-010), 2.5% fetal calf serum (FCS, Sigma Cat-No. F4135 (FBS)), 2 mM glutamine, 100 units/ml penicillin, 100 μg/ml streptomycin (=Pen/Strep from Invitrogen Cat. No. 15140). For the assay the cells were seeded in 384 well plates, 900 cells per well, in the same medium. At the next day, the compounds (dissolved 10 mM in DMSO) were added in various concentrations ranging from 30 μM to 1.5 nM. After 5 days, the MTT assay was done mainly according to the instructions of the manufacturer (Cell proliferation kit I, MTT, from Roche Molecular Biochemicals). In brief: MTT labeling reagent was added to a final concentration of 0.5 mg/ml, added and incubated for 4 hrs at 37° C., 5% CO2. During this incubation time purple formazan crystals are formed. After addition of the solubilization solution (20% Sodium Dodecyl Sulfate (SDS) in 0.02 M HCl) the plates were incubated overnight at 37° C., 5% CO2. After careful mixing, the plates were measured in Victor 2 (scanning multiwell spectrophotometer, Wallac) at 550 nm.
A decrease in number of living cells results in a decrease in the total metabolic activity in the sample. The decrease directly correlates to the amount of purple colour resulting from the solubilization of the purple formazan crystals. Determination of IC90 was done using XL-fit (XLfit software (ID Business Solution Ltd., Guilford, Surrey, UK)).
For `CC(NC(=O)c1ccc(C(=O)NO)s1)c1cccc(-c2ccc(F)cc2)c1` (stereo not drawn) [Example 2-8, Thiophene-2,5-dicarboxylic acid 2-{[1-(4′-fluoro-biphenyl-3-yl)-ethyl]-amide} 5-hydroxyamide], the IC90 lay within 100 to 500 nM.

On to `CC(NC(=O)c1ccc(C(=O)NO)s1)c1ccccc1` (stereo not drawn) [Reference compound, reference compound], for which the IC90 turned out to be 1120 nM.

The same assay, now with this note: MTT assay after 5 days, read-out: IC90 HT29.
`COc1ccccc1-c1ccc(C(C)NC(=O)c2ccc(C(=O)NO)s2)s1` (stereo not drawn) [Example 3-1, Thiophene-2,5-dicarboxylic acid 2-hydroxyamide 5-({1-[5-(2-methoxy-phenyl)-thiophen-2-yl]-ethyl}-amide)]: the IC90 stood at 110 nM.

Regarding `CC(NC(=O)c1ccc(C(=O)NO)s1)c1cccc(-c2cc3ccccc3s2)c1` (stereo not drawn) [Example 2-14, Thiophene-2,5-dicarboxylic acid 2-{[1-(3-benzo[b]thiophen-2-yl-phenyl)-ethyl]-amide} 5-hydroxyamide], the IC90 was 70 nM.

For another assay, the target named is T1, recombinant HDAC-1 (Homo sapiens, UniProt Q13547).
T1 construct: made in house; host or cells: HEK 293 cells (ATCC-No. CRL 1573)
T1 sequence (Q13547 whole entry, species assumed): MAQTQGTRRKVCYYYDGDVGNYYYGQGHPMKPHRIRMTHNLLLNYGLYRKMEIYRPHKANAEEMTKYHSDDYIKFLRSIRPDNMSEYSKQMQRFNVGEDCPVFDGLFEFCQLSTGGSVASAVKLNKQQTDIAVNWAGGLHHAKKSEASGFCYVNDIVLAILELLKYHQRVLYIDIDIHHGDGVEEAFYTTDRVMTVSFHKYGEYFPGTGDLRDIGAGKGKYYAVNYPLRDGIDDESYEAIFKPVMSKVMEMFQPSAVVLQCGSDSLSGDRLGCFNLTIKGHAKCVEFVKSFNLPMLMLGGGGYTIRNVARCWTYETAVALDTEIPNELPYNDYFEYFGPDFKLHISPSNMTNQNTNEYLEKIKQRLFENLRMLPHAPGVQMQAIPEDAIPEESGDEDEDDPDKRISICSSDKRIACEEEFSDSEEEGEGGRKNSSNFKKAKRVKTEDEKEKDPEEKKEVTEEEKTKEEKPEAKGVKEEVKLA
In words: HDAC biochemical quench assay. The note with it: recombinant HDAC-1 purified from HEK 293 cells, histone H4 peptide substrate 1 μM, 90 min. An excerpt:
The function of histone deacetylase (HDAC) is the deacetylation of lysines in e.g. histone H4. A peptide of 17 amino acids derived from histone H4 was labeled with tetramethylrhodamine (TAMRA, fluorophore, Invitrogen) at the C-terminus and QSY-7™ (quencher dye, Invitrogen) at the N-terminus and was used as a substrate (TAMRA-first 17 aa of histone H4-QSY7). Following deacetylation by HDAC, the enzyme Lys C is able to cleave the peptide after lysine. […] Inhibition of HDAC by compounds results in low signals because Lys C could not cleave the substrate and the quench effect persists.
For dose response curves, 10 concentrations were diluted 1:3 starting at 30 μM. 10 μl compound dilution were put into each well of a 384 well plate. 10 μl HDAC were added (recombinant HDAC-1 purified from HEK 293 cells (human embryonic kidney cell line transformed by Adenovirus 5 fragments, ATCC-No. CRL 1573); enzyme activity has to be assessed for each preparation). 10 μl peptide substrate was added (1 μM final concentration, derived from 1 mM stock solution diluted 1:1000 in test buffer). After 90 min incubation at room temperature, the reaction was stopped by addition of 20 μl test buffer including 3 μg/ml Lys C and 0.075% Sodium Dodecyl Sulfate (SDS). After overnight incubation the fluorescence signal of TAMRA was measured (Victor 2 from Wallac, absorption 544 nm, emission 590 nm). The O.D. of DMSO (dimethylsulfoxide)-treated control wells is 100%, the % inhibition of compound treated wells is calculated in relation to 100%. Based on 10 concentrations an IC50 curve is generated by using XLfit3 (XLfit software (ID Business Solution Ltd., Guilford, Surrey, UK)).
Test buffer used: a mixture of 10 mM 4-(2-hydroxyethyl)-1-piperazineethanesulfonic acid (HEPES) pH8, 10 mM NaCl, 10% Glycerol, 0.005% Triton X100™, 0.1 mM ethylenediaminetetraacetic acid (EDTA), 0.1 mM Tris(2-carboxyethyl)phosphine (TCEP). Used plates: 384 well plates (black, Greiner, 781077).
With `CC(NC(=O)c1ccc(C(=O)NO)s1)c1ccc(N2CCCCC2)cc1` (stereo not drawn) [Example 4-3, Thiophene-2,5-dicarboxylic acid 2-hydroxyamide 5-{[1-(4-piperidin-1-yl-phenyl)-ethyl]-amide}], the IC50 is less than 3 nM.

On to `CC(NC(=O)c1ccc(C(=O)NO)s1)c1ccc(-c2ccccc2F)s1` (stereo not drawn) [Example 3-12, Thiophene-2,5-dicarboxylic acid 2-({1-[5-(2-fluoro-phenyl)-thiophen-2-yl]-ethyl}-amide) 5-hydroxyamide], for which the IC50 is 4.11 nM.

On to `CC(NC(=O)c1ccc(C(=O)NO)s1)c1ccc(-c2cccc(F)c2)s1` (stereo not drawn) [Example 3-9, Thiophene-2,5-dicarboxylic acid 2-({1-[5-(3-fluoro-phenyl)-thiophen-2-yl]-ethyl}-amide) 5-hydroxyamide], for which the IC50 was in the range of 3 to 6 nM.

For `CC(NC(=O)c1ccc(C(=O)NO)s1)c1cccc(-c2ccc(F)cc2)c1` (stereo not drawn) [Example 2-8, Thiophene-2,5-dicarboxylic acid 2-{[1-(4′-fluoro-biphenyl-3-yl)-ethyl]-amide} 5-hydroxyamide], the IC50 was 2.52 nM.

Take `C[C@@H](NC(=O)c1ccc(C(=O)NO)s1)c1ccc(N2CCOCC2)cc1` [Example 4-1, (R)-Thiophene-2,5-dicarboxylic acid 2-hydroxyamide 5-{[1-(4-morpholin-4-yl-phenyl)-ethyl]-amide}]: the IC50 lay in the range of 3 to 6 nM.

On to `CC(NC(=O)c1ccc(C(=O)NO)s1)c1ccccc1` (stereo not drawn) [Reference compound, reference compound], for which the IC50 is 3.12 nM.

For the compound `CC(NC(=O)c1ccc(C(=O)NO)s1)c1cccc(-c2cn[nH]c2)c1` (stereo not drawn) [Example 2-18, Thiophene-2,5-dicarboxylic acid 2-hydroxyamide 5-({1-[3-(1H-pyrazol-4-yl)-phenyl]-ethyl}-amide)], the IC50 is less than 3 nM.

Turning to `CC(NC(=O)c1ccc(C(=O)NO)s1)c1ccc(-c2ccc(N(C)C)cc2)cc1` (stereo not drawn) [Example 1-2, Thiophene-2,5-dicarboxylic acid 2-{[1-(4′-dimethylamino-biphenyl-4-yl)-ethyl]-amide} 5-hydroxyamide], the IC50 is 3 to 6 nM.
